US10688093B2, “Methods, compositions, and uses of novel Fyn kinase inhibitors” (priority 2015, dated 2020)

target: full-length recombinant human FYN A (Homo sapiens (Human), UniProt P06241); assay: ADP-Glo Kinase Assay of FYN kinase inhibition; format: biochemical; conditions: primary screen, initial compounds
Summary of the method: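 GST-tagged full-length FYN A (baculovirus, Sf9) at 3 pg preincubated 30 min RT with compound (10-point 3-fold series from 10 μM) in Tris pH 7.5/MgCl2 buffer. 12-mer tyrosine peptide plus 12.5 pmol ATP added, 90 min RT; ADP measured by ADP-Glo luminescence, IC50 from dose-response.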

Sequence of full-length recombinant human FYN A (P06241 whole entry): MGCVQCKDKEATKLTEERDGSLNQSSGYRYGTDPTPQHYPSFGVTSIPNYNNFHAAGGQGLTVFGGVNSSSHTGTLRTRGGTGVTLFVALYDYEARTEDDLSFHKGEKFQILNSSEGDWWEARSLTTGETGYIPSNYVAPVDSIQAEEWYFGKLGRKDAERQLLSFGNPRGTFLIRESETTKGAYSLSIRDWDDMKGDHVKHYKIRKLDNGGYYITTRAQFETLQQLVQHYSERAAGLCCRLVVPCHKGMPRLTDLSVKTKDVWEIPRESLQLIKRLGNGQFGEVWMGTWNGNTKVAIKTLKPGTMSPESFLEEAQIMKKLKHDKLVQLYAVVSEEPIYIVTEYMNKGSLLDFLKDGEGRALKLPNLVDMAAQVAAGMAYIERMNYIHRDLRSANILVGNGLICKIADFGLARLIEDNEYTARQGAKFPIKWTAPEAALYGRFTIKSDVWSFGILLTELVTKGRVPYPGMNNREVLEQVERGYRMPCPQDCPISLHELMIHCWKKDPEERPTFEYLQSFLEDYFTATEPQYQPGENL

| IC50 | Structure (SMILES) |
| --- | --- |
| 1.67 µM | COc1ccccc1-c1n[nH]c2nccc(-c3cccc(CO)c3)c12 [Compound 508, [3-[3-(2-methoxyphenyl)-1H-pyrazolo[3,4-b]pyridin-4-yl]phenyl] methanol] |
| 2.05 µM | NC(=O)c1ccc(-c2ccnc3[nH]nc(-c4cccc(F)c4)c23)cc1 [Compound 509, 4-[3-(3-fluorophenyl)-1H-pyrazolo[3,4-b]pyridin-4-yl]benzamide] |
| 5.71 µM | NC(=O)c1ccc(-c2ccnc3[nH]nc(-c4ccc(Cl)cc4)c23)cc1 [Compound 510, 4-[3-(4-chlorophenyl)-1H-pyrazolo[3,4-b]pyridin-4-yl]benzamide] |
| 5.03 µM | COc1cc(-c2n[nH]c3nccc(-c4cccc(O)c4)c23)cc(OC)c1OC [Compound 511, 3-[3-(3,4,5-trimethoxy-phenyl)-1H-pyrazolo[3,4-b]pyridin-4-yl]phenol] |
| 19.7 µM | CC(=O)c1cccc(-c2ccnc3[nH]nc(C4CCNCC4)c23)c1 [Compound 512, 1-[3-[3-(4-piperidyl)-1H-pyrazolo[3,4-b]pyridin-4-yl]phenyl] ethanone] |
| 4.87 µM | CC(=O)Nc1ccc(-c2ccnc3[nH]nc(-c4ccsc4)c23)cc1 [Compound 513, N-[4-[3-(3-thienyl)-1H-pyrazolo[3,4-b]pyridin-4-yl]phenyl] acetamide] |
| 11.9 µM | COc1cc(-c2ccnc3[nH]nc(C4CCNCC4)c23)ccc1O [Compound 514, 2-methoxy-4-[3-(4-piperidyl)-1H-pyrazolo[3,4-b]pyridin-4-yl]phenol] |
| 12.8 µM | COc1cc(-c2n[nH]c3nccc(-c4cccc(NS(C)(=O)=O)c4)c23)cc(OC)c1OC [Compound 515, N-[3-[3-(3,4,5-trimethoxy-phenyl)-1H-pyrazolo[3,4-b]pyridin-4-yl]phenyl] methane-sulfonamide] |
| 4.9 µM | COc1ccccc1-c1n[nH]c2nccc(-c3ccoc3)c12 [Compound 516, 4-(3-furyl)-3-(2-methoxyphenyl)-1H-pyrazolo[3,4-b]pyridine] |
| 6.25 µM | Oc1cccc(-c2ccnc3[nH]nc(-c4ccc5c(c4)OCO5)c23)c1 [Compound 517, 3-[3-(1,3-benzodioxol-5-yl)-1H-pyrazolo[3,4-b]pyridin-4-yl]phenol] |
| 14.3 µM | c1cncc(-c2n[nH]c3nccc(-c4ccoc4)c23)c1 [Compound 518, 4-(3-furyl)-3-(3-pyridyl)-1H-pyrazolo[3,4-b]pyridine] |
| 5.38 µM | COc1cc(-c2n[nH]c3nccc(-c4ccc(CO)cc4)c23)cc(OC)c1OC [Compound 519, [4-[3-(3,4,5-trimethoxy-phenyl)-1H-pyrazolo[3,4-b]pyridin-4-yl]phenyl] methanol] |
| 17.6 µM | COc1cccc(-c2ccnc3[nH]nc(C4CCNCC4)c23)c1 [Compound 520, 4-(3-methoxyphenyl)-3-(4-piperidyl)-1H-pyrazolo[3,4-b]pyridine] |
| 1.58 µM | COc1ccccc1-c1n[nH]c2nccc(-c3ccc(C#N)cc3)c12 [Compound 521, 4-[3-(2-methoxyphenyl)-1H-pyrazolo[3,4-b]pyridin-4-yl]benzonitrile] |
| 11.1 µM | COc1cc(-c2n[nH]c3nccc(-c4ccc(C(=O)N(C)C)cc4)c23)cc(OC)c1OC [Compound 522, N,N-dimethyl-4-[3-(3,4,5-trimethoxy-phenyl)-1H-pyrazolo[3,4-b]pyridin-4-yl]benzamide] |
| 4.64 µM | OCc1ccc(-c2ccnc3[nH]nc(-c4ccc5c(c4)OCO5)c23)cc1 [Compound 523, [4-[3-(1,3-benzodioxol-5-yl)-1H-pyrazolo[3,4-b]pyridin-4-yl]phenyl] methanol] |
| 11.7 µM | COc1ccc(F)cc1-c1ccnc2[nH]nc(C3CCNCC3)c12 [Compound 524, 4-(5-fluoro-2-methoxy-phenyl)-3-(4-piperidyl)-1H-pyrazolo[3,4-b]pyridine] |
| 11.2 µM | COc1cc(-c2n[nH]c3nccc(-c4ccc(S(C)(=O)=O)cc4)c23)cc(OC)c1OC [Compound 525, 4-(4-methylsulfonyl-phenyl)-3-(3,4,5-trimethoxy-phenyl)-1H-pyrazolo[3,4-b]pyridlne] |
